Measured values published in patent US20220177471A1, “N-1 BRANCHED ALKYL SUBSTITUTED IMIDAZO[4,5-C]QUINOLINE COMPOUNDS, COMPOSITIONS, AND METHODS” (3M INNOVATIVE PROPERTIES COMPANY, priority 2019, published 2022).

Key:
[1] = target: T1, human TLR7 (Homo sapiens, UniProt Q9NYK1); assay: TLR activation, HEK-BLUE-hTLR7 SEAP reporter cells; format: cell-based; settings: 16-20 hours, lowest concentration giving SEAP response at least 2x vehicle control, tested 0.01-30 micromolar
T1 construct: host or cells: HEK293 (HEK-BLUE-hTLR7)
T1 sequence (Q9NYK1 27-1049): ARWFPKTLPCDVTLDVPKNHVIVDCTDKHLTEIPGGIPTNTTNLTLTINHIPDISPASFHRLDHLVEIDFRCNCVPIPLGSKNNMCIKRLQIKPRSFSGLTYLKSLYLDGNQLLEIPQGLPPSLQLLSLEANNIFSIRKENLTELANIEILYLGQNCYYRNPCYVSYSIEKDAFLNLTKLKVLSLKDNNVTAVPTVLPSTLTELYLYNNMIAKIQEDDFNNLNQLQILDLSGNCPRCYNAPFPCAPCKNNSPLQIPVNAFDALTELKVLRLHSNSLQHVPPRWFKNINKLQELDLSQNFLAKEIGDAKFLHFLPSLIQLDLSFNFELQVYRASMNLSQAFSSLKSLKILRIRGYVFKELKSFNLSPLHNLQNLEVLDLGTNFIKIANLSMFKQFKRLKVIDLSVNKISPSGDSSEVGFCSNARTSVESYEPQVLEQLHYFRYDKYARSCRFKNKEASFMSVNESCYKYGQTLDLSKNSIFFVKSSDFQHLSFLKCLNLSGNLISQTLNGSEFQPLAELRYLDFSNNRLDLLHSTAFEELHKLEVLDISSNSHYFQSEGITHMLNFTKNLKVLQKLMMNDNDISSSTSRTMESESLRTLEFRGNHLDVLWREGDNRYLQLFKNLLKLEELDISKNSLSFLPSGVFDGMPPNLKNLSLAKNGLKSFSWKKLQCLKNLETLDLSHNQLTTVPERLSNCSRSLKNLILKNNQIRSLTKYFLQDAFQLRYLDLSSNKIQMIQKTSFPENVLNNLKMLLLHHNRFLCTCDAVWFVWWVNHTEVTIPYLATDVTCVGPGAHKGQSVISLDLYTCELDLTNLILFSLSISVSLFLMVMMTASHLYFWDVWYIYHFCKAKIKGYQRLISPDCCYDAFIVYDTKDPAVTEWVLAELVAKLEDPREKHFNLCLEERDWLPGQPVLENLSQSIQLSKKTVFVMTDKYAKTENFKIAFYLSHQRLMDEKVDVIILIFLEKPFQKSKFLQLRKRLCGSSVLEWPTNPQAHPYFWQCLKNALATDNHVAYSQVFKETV
Method: (§1) HEK-BLUE-hTLR7 or hTLR8 reporter cells were obtained from InvivoGen, San Diego, Calif. According to the manufacturer's description, these reporter cells were prepared by co-transfection of HEK293 cells with an inducible secreted embryonic alkaline phosphatase (SEAP) reporter gene and either the human TLR7 or TLR8 gene. The SEAP reporter gene was placed under the control of an IFN-β minimal promoter fused to five NF-κB and AP-1-binding sites. In the presence of a TLR ligand, activation of NF-κB and AP-1 occurs, resulting in a corresponding increase in SEAP levels.
(§2) In the assay, the HEK cells were grown and maintained using standard cell culture techniques in a growth medium that contained Dulbecco's Modified Eagle Medium (ThermoFisher Scientific Incorporated, Waltham, Mass.) supplemented with 1% penicillin/streptomycin and 10% heat-inactivated Gibco fetal bovine serum (ThermoFisher Scientific). Each compound was solubilized in DMSO to create a 3 mM stock solution. The stock solution was then further diluted with the growth medium to prepare serial dilutions. Each test compound was tested at a concentration of 30, 10, 3.3, 1.1, 0.37, 0.12, 0.04, and 0.01 micromolar using a 96-well format with 5×10^4 cells and 200 microliters of growth medium per well.
(§3) For each compound, hTLR7, hTLR8, and their respective null control HEK cells were screened. DMSO serially diluted into the growth medium served as the vehicle control. Cell culture supernatants containing the SEAP reporter were collected after an incubation period of 16-20 hours in a cell culture incubator (37° C. and 5% CO2), and either analyzed immediately or stored at −80° C. SEAP levels were measured using the colorimetric enzyme assay (QUANTI-BLUE (InvivoGen) according to manufacturer's instructions.
(§4) Specifically, the minimum effective concentration of each compound (micromolar) was determined as the lowest concentration of the compound that produced a SEAP expression response at least 2× greater than that observed with the vehicle control wells.

[2] = target: T2, human TLR8 (Homo sapiens, UniProt Q9NR97); assay: TLR activation, HEK-BLUE-hTLR8 SEAP reporter cells; format: cell-based; settings: 16-20 hours, lowest concentration giving SEAP response at least 2x vehicle control, tested 0.01-30 micromolar
T2 construct: host or cells: HEK293 (HEK-BLUE-hTLR8)
T2 sequence (Q9NR97 27-1041): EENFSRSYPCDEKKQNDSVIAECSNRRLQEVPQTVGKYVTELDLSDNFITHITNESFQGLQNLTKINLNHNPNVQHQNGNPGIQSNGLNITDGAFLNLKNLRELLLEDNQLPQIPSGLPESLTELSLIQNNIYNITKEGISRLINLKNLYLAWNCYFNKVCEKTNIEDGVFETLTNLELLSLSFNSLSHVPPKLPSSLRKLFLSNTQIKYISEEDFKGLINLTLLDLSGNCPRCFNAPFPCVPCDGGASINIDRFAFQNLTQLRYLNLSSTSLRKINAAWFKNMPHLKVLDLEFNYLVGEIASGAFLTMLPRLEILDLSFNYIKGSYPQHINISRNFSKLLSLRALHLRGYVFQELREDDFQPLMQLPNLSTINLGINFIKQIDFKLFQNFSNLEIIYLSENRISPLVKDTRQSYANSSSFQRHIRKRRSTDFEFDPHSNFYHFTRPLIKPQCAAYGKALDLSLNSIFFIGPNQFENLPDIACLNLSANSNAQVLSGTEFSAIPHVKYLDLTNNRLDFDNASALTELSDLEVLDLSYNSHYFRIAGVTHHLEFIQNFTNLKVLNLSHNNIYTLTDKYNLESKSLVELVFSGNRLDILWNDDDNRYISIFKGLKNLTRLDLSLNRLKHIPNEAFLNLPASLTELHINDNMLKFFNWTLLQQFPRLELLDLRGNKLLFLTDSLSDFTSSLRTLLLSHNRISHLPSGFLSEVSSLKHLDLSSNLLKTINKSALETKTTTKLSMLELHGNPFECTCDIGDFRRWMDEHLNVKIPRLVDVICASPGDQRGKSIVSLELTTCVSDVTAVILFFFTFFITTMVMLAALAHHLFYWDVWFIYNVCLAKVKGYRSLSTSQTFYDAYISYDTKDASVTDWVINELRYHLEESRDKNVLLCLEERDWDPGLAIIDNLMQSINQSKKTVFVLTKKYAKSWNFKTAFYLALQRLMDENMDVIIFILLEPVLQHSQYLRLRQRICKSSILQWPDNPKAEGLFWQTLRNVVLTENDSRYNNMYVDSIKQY
Method: as §1, §2, §3, §4

Structure (SMILES) | MEC to Produce TLR Activation: TLR 7 [1] [µM] | MEC to Produce TLR Activation: TLR 8 [2] [µM]
CC(C)Cn1cnc2c(N)nc3ccccc3c21 [Comparative Example 1, 1-isobutylimidazo[4,5-c]quinolin-4-amine, reference compound] | 10 | >30
CC(C)(O)Cn1cnc2c(N)nc3ccccc3c21 [Comparative Example 2, 1-(4-aminoimidazo[4,5-c]quinolin-1-yl)-2-methyl-propan-2-ol, reference compound] | 10 | >30
CC(C)[C@@H](C)n1cnc2c(N)nc3ccccc3c21 [Example 1, 1-[(1R)-1,2-dimethylpropyl]imidazo[4,5-c]quinolin-4-amine] | 1.1 | >30
CC(C)[C@H](C)n1cnc2c(N)nc3ccccc3c21 [Example 2, 1-[(1S)-1,2-dimethylpropyl]imidazo[4,5-c]quinolin-4-amine] | >30 | >30
C[C@@H](n1cnc2c(N)nc3ccccc3c21)C(C)(C)C [Example 3, 1-[(1R)-1,2,2-trimethylpropyl]imidazo[4,5-c]quinolin-4-amine] | 1.11 | >30
C[C@H](n1cnc2c(N)nc3ccccc3c21)C(C)(C)C [Example 4, 1-[(1S)-1,2,2-trimethylpropyl]imidazo[4,5-c]quinolin-4-amine] | >30 | >30
C[C@H](C1CCCCC1)n1cnc2c(N)nc3ccccc3c21 [Example 5, 1-[(1R)-1-cyclohexylethyl]imidazo[4,5-c]quinolin-4-amine] | 1.11 | >30
C[C@@H](C1CCCCC1)n1cnc2c(N)nc3ccccc3c21 [Example 6, 1-[(1S)-1-cyclohexylethyl]imidazo[4,5-c]quinolin-4-amine] | >30 | >30
CCCC[C@H](C(C)C)n1cnc2c(N)nc3ccccc3c21 [Example 7, 1-[(1R)-1-isopropylpentyl]imidazo[4,5-c]quinolin-4-amine] | 0.04 | >30
CCCC[C@@H](n1cnc2c(N)nc3ccccc3c21)C(C)(C)C [Example 8, 1-[(1R)-1-tert-butylpentyl]imidazo[4,5-c]quinolin-4-amine] | ≤0.01 | >30
C[C@@H](n1cnc2c(N)nc3ccccc3c21)C(C)(C)O [Example 9, (3R)-3-(4-aminoimidazo[4,5-c]quinolin-1-yl)-2-methyl-butan-2-ol] | 3.3 | >30
C[C@H](n1cnc2c(N)nc3ccccc3c21)C(C)(C)O [Example 10, (3S)-3-(4-aminoimidazo[4,5-c]quinolin-1-yl)-2-methyl-butan-2-ol] | >30 | >30
CC[C@@H](n1cnc2c(N)nc3ccccc3c21)C(C)(C)O [Example 11, (3R)-3-(4-aminoimidazo[4,5-c]quinolin-1-yl)-2-methyl-pentan-2-ol] | 1.1 | >30
CC[C@H](n1cnc2c(N)nc3ccccc3c21)C(C)(C)O [Example 12, (3S)-3-(4-aminoimidazo[4,5-c]quinolin-1-yl)-2-methyl-pentan-2-ol] | >30 | >30
CCC[C@@H](n1cnc2c(N)nc3ccccc3c21)C(C)(C)O [Example 13, (3R)-3-(4-aminoimidazo[4,5-c]quinolin-1-yl)-2-methyl-hexan-2-ol] | 0.04 | 10
